# According to patent US20190307833A1, “TREATMENT OF AGE-RELATED MACULAR DEGENERATION WITH NEUROTROPHIC PEPTIDERGIC COMPOUND” (The Research Foundation for Mental Hygiene, Inc., priority 2018, published 2019):
# *1 amine or outer side, *2 acyl side, *3 side chain or, on linkers, in order; H or OH if unused. Where a SMILES comes first, the peptide text is derived from it. [ ]: non-standard residue; d: D form. X1 = O=C(C1(N[*:1])C2CC3CC(C2)CC1C3)[*:2]
# Key:
# [1] = Stability in artificial gastric juice; assay type: in vitro ADME; details: simulated gastric fluid; during 30 minutes; read-out: stable in artificial gastric juice
# Method: (§1) P021 is quite stable in artificial gastric juice (˜90% during 30 minutes) and in artificial intestinal juice (˜95% during 120 minutes).
# [2] = Stability in artificial intestinal juice; assay type: in vitro ADME; details: simulated intestinal fluid; during 120 minutes; read-out: stable in artificial intestinal juice
# Method: as §1
# [3] = BBB studies through a commercial service (APREDICA)
# [4] = system: retina of aged Fisher rats; assay: Retinal morphology by H & E staining in aged Fisher rats; assay type: in vivo, rat; details: 500 nmoles/kg/day by gavage, 3 months
# Method: (§2) Female aged (19˜21 months) Fisher rats (n=7) were given P021 per os by gavage (10 ml/kg body weight) once a day for 88 days. The dose of P021 was 500 nanomoles (289.15 microgram)/kg body weight daily. As controls, a second group of aged (19˜21 months) female rats (n=7) and a group of young adult female rats (2-3 months, n=7) were treated identically, but with normal saline (vehicle) only (FIG. 1A). Administration of vehicle and test compound was done at 7-9 AM daily in the pretesting phase.
# (§3) The animals were anesthetized by using an overdose of avertin and then were transcardially perfused by using 0.1 M phosphate-buffered saline (PBS). Eyeballs were dissected out from the carcasses, immersion-fixed for 24 hours in 4% paraformaldehyde at 4° C., and then transferred to 70% alcohol for storage; in the case of mice, the eyeballs were prefixed by injecting 4% paraformaldehyde, followed by removal from the carcasses and immersion fixation as above. After the cornea and lens of the left eyes were removed, the remaining eye cup was embedded in paraffin with the orientation parallel to the optic nerve in longitudinal position. In all cases, 5-μm serial sections were cut by using a rotary microtome and were mounted on Superfrost Plus slides.
# (§4) Every 25th retinal section was deparaffinized and subjected to hematoxylin and eosin (H & E) staining to evaluate the morphology. The H & E staining images were captured with a light microscope using 2×, 40×, and 100× objective lenses. Because there is no significant difference between the ⅕th to the ⅓rd of the retina from the optic nerve head and the most peripheral part, the ⅕^th position of the retina from the optic nerve to the most peripheral part of the retina was chosen as the “central,” and the most peripheral part of the retina as “peripheral.” Rows of the outer nuclear layer (ONL) and the inner nuclear layer (INL) of the retina in each group (every 25th section, 3-5 sections per rat or mouse) were manually counted in three columns per image by using a 40× or, where necessary, a higher magnification objective. The thicknesses of the ONL and INL of the central and peripheral retina in each group (every 25th section from the optic nerve head, 2-3 sections per rat or mouse) were measured and quantified by using the ImageJ/NIH image analysis system.
# [5] = system: RPE of aged Fisher rats; assay: Auto-fluorescence of RPE lipofuscin granules and deposits in aged Fisher rats; assay type: in vivo, rat; details: 500 nmoles/kg/day by gavage, 3 months
# Method: as §2
# (§5) The animals were anesthetized by using an overdose of avertin and then were transcardially perfused by using 0.1 M phosphate-buffered saline (PBS). Eyeballs were dissected out from the carcasses, immersion-fixed for 24 hours in 4% paraformaldehyde at 4° C., and then transferred to 70% alcohol for storage; in the case of mice, the eyeballs were prefixed by injecting 4% paraformaldehyde, followed by removal from the carcasses and immersion fixation as above. […]
# (§6) Paraffin sections were deparaffinized, rehydrated, and covered with coverslips with 0.1M PBS and then photographed by using a confocal microscope with red channel (λex=543, λem=590/50), as described previously. […] For quantification, the number of deposits between RPE and Cho in each section was manually counted by using a 20× or, where necessary, a higher magnification objective.
# [6] = system: retina of aged 3×Tg-AD mice; assay: Retinal morphology by H & E staining in aged 3×Tg-AD mice; assay type: in vivo, mouse; details: 60 nmoles/g feed from 3 to 21 months of age
# From the text: (§7) At approximately 3 months of age, the female wild type and 3×Tg-AD mice were divided into five groups (n=6-7 mice per group) (FIG. 3A): (1) Wild type mice, age 3 months, without treatment (WT-3m); (2) 3×Tg-AD mice, age 3 months, without treatment (3×Tg-3m); (3) Wild type mice, age 3 months, treated with vehicle feed without P021 until the age of 21 months (WT-21m/Veh); (4) 3×Tg-AD-mice, age 3 months, treated with vehicle feed without P021 until the age of 21 months (3×Tg-21m/Veh); and (5) 3×Tg-AD-mice, age 3 months, treated with 60 nmol P021/g feed till the age of 21 months (3×Tg-21m/P021). The first two groups were the starting point and were employed as the matched young controls. P021 was formulated in the feed by Research Diets (New Brunswick, N.J., USA). Food consumption and body weight were recorded every 2 weeks and every month, respectively. The average mouse food consumption was ˜2.7 g feed/day.
# as §3, §4
# [7] = system: RPE of aged 3×Tg-AD mice; assay: Auto-fluorescence of RPE lipofuscin granules and deposits in aged 3×Tg-AD mice; assay type: in vivo, mouse
# From the text: as §7, §3, §6
# [8] = system: Iba-1; assay: Iba-1 immunofluorescence (microgliosis) in retina of aged 3×Tg-AD mice; assay type: in vivo, mouse; details: 60 nmoles/g feed from 3 to 21 months of age
# From the text: as §7, with “feed/day. […]” for “feed/day.”
# (§8) Paraffin sections were deparaffinized, rehydrated, and subjected to antigen retrieval by boiling for 20 minutes in 10 mM sodium citrate solution (pH 6.0). […] The area to be analyzed was selected and converted to grey scale, the threshold (Yen mode) was adjusted, and the area percentage of positive staining was measured for each section by using the NIH Image J software package. […]
# [9] = system: Iba-1; assay: Iba-1 immunofluorescence (microgliosis) in retina of aged rats; assay type: in vivo, rat; details: 500 nmoles/kg/day by gavage, 3 months
# Method: as §2, §3
# as §8, with “6.0). Sections were then washed three times in 10 mM PBS for 15 minutes each and incubated in 0.3% Triton X-100 for 30 minutes. The sections were again washed in 10 mM PBS (15 minutes, three times each) and blocked in blocking solution (5% normal goat serum containing 0.1% Triton X-100 and 0.05% Tween 20 in PBS) for 45 minutes.” for “6.0).”
# [10] = system: GFAP; assay: GFAP immunofluorescence (astrogliosis) in retina of aged 3×Tg-AD mice; assay type: in vivo, mouse; details: 60 nmoles/g feed from 3 to 21 months of age
# From the text: as §7, §3, §8
# [11] = system: GFAP; assay: GFAP immunofluorescence (astrogliosis) in retina of aged rats; assay type: in vivo, rat
# Method: as §2, §5, §8
# [12] = system: total tau, P-tau, Aβ/APP; assay: Tau, phosphorylated tau and Aβ/APP immunofluorescence in retina of aged rats; assay type: in vivo, rat
# Method: as §2, §3
# (§9) Paraffin sections were deparaffinized, rehydrated, and subjected to antigen retrieval by boiling for 20 minutes in 10 mM sodium citrate solution (pH 6.0). Sections were then washed three times in 10 mM PBS for 15 minutes each and incubated in 0.3% Triton X-100 for 30 minutes. The sections were again washed in 10 mM PBS (15 minutes, three times each) and blocked in blocking solution (5% normal goat serum containing 0.1% Triton X-100 and 0.05% Tween 20 in PBS) for 45 minutes. Sections were then incubated overnight at 4° C. with the corresponding primary antibodies (see Table 1 for antibodies used in this study) diluted in the same blocking solution. After being washed three times for 15 minutes each with 10 mM PBS, sections were incubated with Alexa-Fluor 488-conjugated goat anti-mouse or anti-rabbit IgG secondary antibodies (1:1000) in 10 mM PBS with 0.05% Tween 20 for 2 hours at room temperature. Sections were subsequently washed one time and incubated with To-Pro (1:1000) for 15 minutes. After being washed three times for 15 minutes, sections were mounted and cover-slipped by using ProLong Gold anti-fade reagent. The absence of primary antibody control staining was included in each experiment as a negative control. Double immunofluorescence and To-Pro images were captured at equal camera exposure (for each antibody staining) with a Nikon EZ-C1 laser confocal imaging system. The area to be analyzed was selected and converted to grey scale, the threshold (Yen mode) was adjusted, and the area percentage of positive staining was measured for each section by using the NIH Image J software package. The staining area was averaged from 2-3 independent sections of each eye (n=5-7 different animals per group).
# [13] = system: total tau, P-tau, Aβ/APP; assay: Tau, phosphorylated tau and Aβ/APP immunofluorescence in retina and optic nerve of aged 3×Tg-AD mice; assay type: in vivo, mouse
# From the text: as §7, §3, §9
# [14] = system: VEGF; assay: VEGF immunofluorescence in retina and optic nerve of aged 3×Tg-AD mice; assay type: in vivo, mouse
# From the text: as §7, §3, §8
# [15] = cited from earlier work
# [16] = system: rat and mouse models of AD; details: cited from earlier work
# [17] = chronic oral treatment, aged rats and mice; cited from earlier work
# [18] = 60 nmoles/g feed from 3 to 21 months of age, auto-fluorescence
# [19] = 3×Tg-AD mice, 60 nmoles/g feed from 3 to 21 months of age
compound,measurement,setting,value
"CC(=O)N[C@@H](CC(=O)O)C(=O)NCC(=O)NCC(=O)N[C@@H](CC(C)C)C(=O)NC1(C(N)=O)C2CC3CC(C2)CC1C3 (stereo partly shown) [P021, Ac-DGGL^AG-NH2] (Ac-DGGL[X1]-NH2)",remaining at 0.5 h,[1],~90%
same,remaining at 2 h,[2],~95%
same,crossing of the BBB,[3],a sufficient amount of P021 crossed the BBB
same,RPE vacuolization and atrophy,[4],no apparent abnormalities were observed
same,arrangement of apical microvilli (AM) in RPE,[4],showed improvement in the arrangement of AM
same,"decrease in rows and thickness of ONL, central vs peripheral retina",[4],prevented these pathological changes more effectively in the central retina
same,outer retinal folds and rosette-like structures in the central retina,[4],No abnormal structure like this was observed
same,rows and thickness of INL in the central retina,[4],no detectable effect
same,"rows and thickness of ONL, P021-treated aged rats vs young rats",[4],no significant difference between ˜5- to 6-month-old rats and P021-treated ˜22- to 24-month-old rats
same,rows of INL in the peripheral retina,[4],showed a clear trend to rescue the number of rows
same,lipofuscin granules and deposition number between RPE and Cho,[5],obviously decreased
same,decrease in rows and thickness of INL in the central retina,[6],chronic treatment with P021 prevented these changes
same,decrease in rows and thickness of ONL in the central retina,[6],prevented
same,decrease in rows and thickness of ONL in the peripheral retina,[6],not in the peripheral retina
same,"extension of ONL nuclei across the OPL into the INL, central retina",[6],this pathology was prevented
same,prevention of changes in rows and thickness of INL in the peripheral retina,[6],did not reach significance
same,rescue of INL thickness in the central retina,[6],did not reach statistical significance
same,deposits between the RPE and Cho,[7]; [18],significantly reduced
same,lipofuscin granules in RPE,[7]; [18],some small lipofuscin granules could still be observed
same,RPE and BM abnormalities (AMD features) overall,[7]; P021 administered in the diet,Most of these AMD features were prevented
same,Iba-1 immunostaining (area percentage) in the peripheral retina,[8],decreased in 3×Tg-21 m/P021 mice to the levels in WT-3 m/Veh and 3×Tg-3 m/Veh mice
same,distribution of Iba-1-positive staining in the central retina,[8],Iba-1-positive staining was only observed in the GCL
same,"relative Iba-1 immunostaining from the NFL to the OS, central and peripheral retinas",[9],dramatically reduced
same,Iba-1 staining from the ONL to the OS,[9]; especially central retina,no staining was found from the ONL to the OS
same,localization of Iba-1 from the NFL to the OPL,[9]; vs vehicle aged rats,decrease in localization from the NFL to the OPL
same,area percentage of GFAP from the NFL to the ONL in the central retina,[10],reduced by P021 treatment to the levels in WT-3m/Veh and 3×Tg-3 m/Veh mice
same,distribution of GFAP-positive staining,[10],limited to the NFL and GCL
same,area percentage of GFAP in the peripheral retina,[10]; similar trend,did not reach statistical significance
same,"area percentage of GFAP-positive staining, central and peripheral retinas",[11],drastically elevated in the central and peripheral retinas in ˜22- to 24-month-old/Veh rats as compared to ˜5- to 6-month-old/Veh rats and ˜22- to 24-month-old/P021 rats
same,GFAP staining,"[11]; 500 nmoles/kg/day by gavage, 3 months, vs vehicle aged rats",reduced very much
same,tau and Aβ pathologies in the retina,"[12]; aged rats, 500 nmoles/kg/day by gavage, 3 months",prevented the increase in tau and Aβ pathologies
same,Aβ/APP immunoreactivity,[12]; retinas of aged rats,prevents increase of Aβ/APP immunoreactivity
same,tau hyperphosphorylation at Ser-202/Thr-205 (AT8 site),[12]; retinas of aged rats,prevents increase in the expression of tau hyperphosphorylation at Ser-202/Thr-205
same,tau hyperphosphorylation at Ser-396/404 (PHF-1 site),[12]; retinas of aged rats,prevents increase in the expression of tau hyperphosphorylation at Ser-396/404
same,total tau immunoreactivity (R134d),[12]; retinas of aged rats,prevents the increase in total tau immunoreactivity
same,tau and Aβ pathologies in the retina,[13]; [19],prevented the increase in tau and Aβ pathologies
same,Aβ/APP immunoreactivity,[13]; retinas of aged mice,prevents increase of Aβ/APP immunoreactivity
same,tau hyperphosphorylation at Ser-202/Thr-205 (AT8 site),[13]; retinas of aged mice,prevents increase in the expression of tau hyperphosphorylation at Ser-202/Thr-205
same,tau hyperphosphorylation at Ser-396/404 (PHF-1 site),[13]; retinas of aged mice,prevents increase in the expression of tau hyperphosphorylation at Ser-396/404
same,total tau immunoreactivity (R134d),[13]; retinas of aged mice,prevents the increase in total tau immunoreactivity
same,VEGF staining in the optic nerve,[14]; [19],the size of the staining patch was decreased
same,localization of VEGF-positive spots in the retina,[14]; [19],limited mainly to the GFL to the IPL
same,expression of VEGF in retinas,[14]; aged mice,prevents increase in the expression of VEGF
same,oral bioavailability,[15],orally bioavailable
same,"cognitive impairment, synaptic deficit, neuroinflammation, tau and Aβ pathologies",[16],"rescue cognitive impairment, synaptic deficit, neuroinflammation, and tau and Aβ pathologies"
same,general physical state (side effects),[17],did not reveal any worsening in general physical state
